From article PMC4764977, “AZD8797 is an allosteric non-competitive modulator of the human CX3CR1 receptor” (Biochemical Journal, 2016)
Values belong to the molecule of their own block, whether it stands above or below them.

What was measured:
CX3CR1 [1] = target: T1, CX3CR1 (Homo sapiens, UniProt P49238); experiment: Equilibrium saturation binding, CHO-hCX3CR1 membranes; set-up: host or cells: CHO-K1; conditions: GTPγS added (100 μM)
T1 sequence (P49238 1-355): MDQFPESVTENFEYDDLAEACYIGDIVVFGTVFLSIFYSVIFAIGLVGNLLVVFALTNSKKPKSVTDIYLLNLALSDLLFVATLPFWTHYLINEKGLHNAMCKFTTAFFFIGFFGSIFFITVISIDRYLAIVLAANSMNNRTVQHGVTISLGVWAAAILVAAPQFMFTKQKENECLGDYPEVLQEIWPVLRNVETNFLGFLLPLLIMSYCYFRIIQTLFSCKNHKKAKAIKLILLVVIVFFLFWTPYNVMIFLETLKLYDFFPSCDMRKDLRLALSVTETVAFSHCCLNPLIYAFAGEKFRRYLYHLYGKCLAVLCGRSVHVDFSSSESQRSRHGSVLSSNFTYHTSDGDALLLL
Method: Cells were washed in PBS and lysed with an Ultra-Turrax Homogenizer in 50 mM Tris/HCl (pH 7.4) and 1 mM EDTA with Complete™ protease inhibitor (Roche). […] Protein concentration was determined using the BCA method (Thermo Fisher Scientific). […] The filter plate was washed in ice-cold 25 mM HEPES (pH 7.4), 5 mM MgCl2, 1 mM CaCl2 and 500 mM NaCl and dried at 50°C for 1 h. Scintillation cocktail, Optiphase Supermix (PerkinElmer) was added to each well and the radioactivity was measured using a MicroBeta Trilux reader (PerkinElmer). […] The DMSO concentration was held constant at 1%. where Kd is the radioligand dissociation constant. Saturation binding isotherms were analysed by non-linear regression and globally fitted to a hyperbolic one-site binding model taking into account both NSB and total binding to calculate the total receptor number (Bmax) and radioligand dissociation constant (Kd): […] NSB=NS·X+Background, where NS is the concentration-dependent NSB. To visualize the manner of binding of CX3CL1 and AZD8797, a diagnostic affinity ratio plot designed to compare strictly competitive behaviour with allosteric interactions was used. […] For single site competitive interactions, the resulting linear plot has the slope of 1.0. For allosteric but competitive interactions, the slope will start at 1.0 but progressively deviate from unity, eventually reaching a limit governed by the allosteric ternary complex model co-operativity factor α [21, 22].

CX3CR1 [2] = target: T1, CX3CR1; experiment: 125I-CX3CL1 kinetic radioligand binding, CHO-hCX3CR1 membranes; set-up: host or cells: CHO-K1
Method: Incubation times ranged from 2.5 min to 4 h. For the association experiments, the radioligand data were fitted to the following monophasic exponential association equation and the association rate (kon) was calculated using the added amounts of radioligand (L) and dissociation rate (koff) as constants. koff was measured in separate dissociation experiments. The dissociation data were fitted to the monophasic exponential decay equation: where Y0 is the binding (cpm) at time zero, X is the time and NS is the (non-specific) binding at infinite times. […] Multiple compound dissociation data were fitted to the biphasic exponential decay equation: […]

CX3CR1 [3] = target: T2, CX3CR1 (Homo sapiens, UniProt P49238); experiment: 125I-CX3CL1 saturation radioligand binding (CHO-hCX3CR1 membranes)
T2 chain: T1 sequence (P49238 1-355)

CX3CR1 [4] = target: T2, CX3CR1; experiment: 125I-CX3CL1 competition radioligand binding (CHO-hCX3CR1 membranes)
[5] = co-adding 100 μM GTPγS + 100 nM CX3CL1, two-phase model, n=2

- Effect on [3H]AZD8797 and 125I-CX3CL1 equilibrium saturation binding (CX3CR1 [1]): no effect
- k1off of 125I-CX3CL1 dissociation (CX3CR1 [2]; [5]): 0.55 min⁻¹
- k2off of 125I-CX3CL1 dissociation (CX3CR1 [2]; [5]): 0.0084 min⁻¹
- Effect on 125I-CX3CL1 association rate (kon) (CX3CR1 [2]; results not shown): no effect
- Effect on maximal binding of 125I-CX3CL1 in association experiments (CX3CR1 [2]; results not shown): no effect
Molecule: Nc1nc2c(ncn2[C@@H]2O[C@H](COP(=O)(O)OP(=O)(O)OP(O)(O)=S)[C@@H](O)[C@H]2O)c(=O)[nH]1 [GTPγS, guanosine 5′-[γ-thio]triphosphate, reference compound]

- Kd (CX3CR1 [3]): 0.19 nM
B1: CX3CL1 (fractalkine) chemokine domain (protein)
chain: LAGQHHGVTKCNITCSKMTSKIPVALLIHYQQNQASCGKRAIILETRQHRLFCADPKEQWVKDAMQHLDRQAAALTRNGGTF
modifications: 125I-labelled CX3CL1

- Ki (CX3CR1 [4]): 0.29 nM
B2: CX3CL1 (fractalkine) chemokine domain (protein)
chain: B1 chain
